Measured values taken from ChEMBL document CHEMBL1671673, “In vitro activity of colistin (polymyxin E) against 3,480 isolates of gram-negative bacilli obtained from patients in Canadian hospitals in the CANWARD study, 2007-2008” (Antimicrob Agents Chemother, 2009).

Columns and labels:
Format in all cases: functional, organism-based
Pseudomonas aeruginosa [1] = experiment: Antibacterial activity against Pseudomonas aeruginosa assessed as susceptible isolates at minimum inhibitory concentration of 16 ug/ml by CLSI broth microdilution method; set-up: scale not given: the % may be the effect or the level left
Enterobacter cloacae = experiment: Antibacterial activity against Enterobacter cloacae assessed as susceptible isolates at minimum inhibitory concentration of <=0.06 ug/ml by CLSI broth microdilution method; set-up: scale not given: the % may be the effect or the level left
Pseudomonas aeruginosa [2] = experiment: Antibacterial activity against Pseudomonas aeruginosa assessed as susceptible isolates at minimum inhibitory concentration of >16 ug/ml by CLSI broth microdilution method; set-up: scale not given: the % may be the effect or the level left
Acinetobacter baumannii [3] = experiment: Antibacterial activity against Acinetobacter baumannii assessed as susceptible isolates at minimum inhibitory concentration of 0.5 ug/ml by CLSI broth microdilution method; set-up: scale not given: the % may be the effect or the level left
Pseudomonas aeruginosa [4] = experiment: Antibacterial activity against Levofloxacin-resistant Pseudomonas aeruginosa assessed as susceptible isolates at minimum inhibitory concentration of 8 ug/ml by CLSI broth microdilution method; set-up: scale not given: the % may be the effect or the level left
Klebsiella aerogenes = experiment: Antibacterial activity against Enterobacter aerogenes assessed as susceptible isolates at minimum inhibitory concentration of 1 ug/ml by CLSI broth microdilution method; set-up: scale not given: the % may be the effect or the level left
Pseudomonas aeruginosa [5] = experiment: Antibacterial activity against Gentamicin-resistant Pseudomonas aeruginosa assessed as susceptible isolates at minimum inhibitory concentration of >16 ug/ml by CLSI broth microdilution method; set-up: scale not given: the % may be the effect or the level left
Pseudomonas aeruginosa [6] = experiment: Antibacterial activity against Meropenem-resistant Pseudomonas aeruginosa assessed as susceptible isolates at minimum inhibitory concentration of 4 ug/ml by CLSI broth microdilution method; set-up: scale not given: the % may be the effect or the level left
Pseudomonas aeruginosa [7] = experiment: Antibacterial activity against Levofloxacin-resistant Pseudomonas aeruginosa assessed as susceptible isolates at minimum inhibitory concentration of 0.5 ug/ml by CLSI broth microdilution method; set-up: scale not given: the % may be the effect or the level left
Klebsiella pneumoniae = experiment: Antibacterial activity against ESBL-producing Klebsiella pneumoniae assessed as susceptible isolates at minimum inhibitory concentration of 0.5 ug/ml by CLSI broth microdilution method; set-up: scale not given: the % may be the effect or the level left
Acinetobacter baumannii [8] = experiment: Antibacterial activity against Acinetobacter baumannii assessed as susceptible isolates at minimum inhibitory concentration of 8 ug/ml by CLSI broth microdilution method; set-up: scale not given: the % may be the effect or the level left
Pseudomonas aeruginosa [9] = experiment: Antibacterial activity against Pseudomonas aeruginosa assessed as resistant isolates at >=8 ug/ml by CLSI broth microdilution method
Escherichia coli = experiment: Antibacterial activity against ESBL-producing Escherichia coli assessed as susceptible isolates at minimum inhibitory concentration of 0.5 ug/ml by CLSI broth microdilution method; set-up: scale not given: the % may be the effect or the level left
Pseudomonas aeruginosa [10] = experiment: Antibacterial activity against Gentamicin-resistant Pseudomonas aeruginosa assessed as susceptible isolates at minimum inhibitory concentration of 4 ug/ml by CLSI broth microdilution method; set-up: scale not given: the % may be the effect or the level left
Proteus mirabilis [11] = experiment: Antibacterial activity against Proteus mirabilis assessed as susceptible isolates at minimum inhibitory concentration of 4 ug/ml by CLSI broth microdilution method; set-up: scale not given: the % may be the effect or the level left
Pseudomonas aeruginosa [12] = experiment: Antibacterial activity against Amikacin-resistant Pseudomonas aeruginosa assessed as susceptible isolates at minimum inhibitory concentration of 2 ug/ml by CLSI broth microdilution method; set-up: scale not given: the % may be the effect or the level left
Proteus mirabilis [13] = experiment: Antibacterial activity against Proteus mirabilis assessed as susceptible isolates at minimum inhibitory concentration of 0.5 ug/ml by CLSI broth microdilution method; set-up: scale not given: the % may be the effect or the level left
Serratia marcescens [14] = experiment: Antibacterial activity against Serratia marcescens assessed as susceptible isolates at minimum inhibitory concentration of <=0.06 ug/ml by CLSI broth microdilution method; set-up: scale not given: the % may be the effect or the level left
Pseudomonas aeruginosa [15] = experiment: Antibacterial activity against Amikacin-resistant Pseudomonas aeruginosa assessed as susceptible isolates at minimum inhibitory concentration of >16 ug/ml by CLSI broth microdilution method; set-up: scale not given: the % may be the effect or the level left
Pseudomonas aeruginosa [16] = experiment: Antibacterial activity against Pseudomonas aeruginosa assessed as susceptible isolates at minimum inhibitory concentration of 1 ug/ml by CLSI broth microdilution method; set-up: scale not given: the % may be the effect or the level left
Pseudomonas aeruginosa [17] = experiment: Antibacterial activity against Piperacillin-resistant Pseudomonas aeruginosa assessed as susceptible isolates at minimum inhibitory concentration of 2 ug/ml by CLSI broth microdilution method; set-up: scale not given: the % may be the effect or the level left
Serratia marcescens [18] = experiment: Antibacterial activity against Serratia marcescens assessed as susceptible isolates at minimum inhibitory concentration of 8 ug/ml by CLSI broth microdilution method; set-up: scale not given: the % may be the effect or the level left
Pseudomonas aeruginosa [19] = experiment: Antibacterial activity against Pseudomonas aeruginosa assessed as susceptible isolates at minimum inhibitory concentration of 2 ug/ml by CLSI broth microdilution method; set-up: scale not given: the % may be the effect or the level left
Pseudomonas aeruginosa [20] = experiment: Antibacterial activity against Ciprofloxacin-resistant Pseudomonas aeruginosa assessed as susceptible isolates at minimum inhibitory concentration of 0.5 ug/ml by CLSI broth microdilution method; set-up: scale not given: the % may be the effect or the level left
Pseudomonas aeruginosa [21] = experiment: Antibacterial activity against Levofloxacin-resistant Pseudomonas aeruginosa assessed as susceptible isolates at minimum inhibitory concentration of 2 ug/ml by CLSI broth microdilution method; set-up: scale not given: the % may be the effect or the level left
Klebsiella oxytoca [22] = experiment: Antibacterial activity against Klebsiella oxytoca assessed as susceptible isolates at minimum inhibitory concentration of 8 ug/ml by CLSI broth microdilution method; set-up: scale not given: the % may be the effect or the level left
Proteus mirabilis [23] = experiment: Antibacterial activity against Proteus mirabilis assessed as susceptible isolates at minimum inhibitory concentration of 2 ug/ml by CLSI broth microdilution method; set-up: scale not given: the % may be the effect or the level left
Proteus mirabilis [24] = experiment: Antibacterial activity against Proteus mirabilis assessed as susceptible isolates at minimum inhibitory concentration of 16 ug/ml by CLSI broth microdilution method; set-up: scale not given: the % may be the effect or the level left
Proteus mirabilis [25] = experiment: Antibacterial activity against Proteus mirabilis assessed as susceptible isolates at minimum inhibitory concentration of 0.12 ug/ml by CLSI broth microdilution method; set-up: scale not given: the % may be the effect or the level left
Pseudomonas aeruginosa [26] = experiment: Antibacterial activity against Pseudomonas aeruginosa assessed as susceptible isolates at minimum inhibitory concentration of 8 ug/ml by CLSI broth microdilution method; set-up: scale not given: the % may be the effect or the level left
Klebsiella oxytoca [27] = experiment: Antibacterial activity against Klebsiella oxytoca assessed as susceptible isolates at minimum inhibitory concentration of >16 ug/ml by CLSI broth microdilution method; set-up: scale not given: the % may be the effect or the level left
Pseudomonas aeruginosa [28] = experiment: Antibacterial activity against Meropenem-resistant Pseudomonas aeruginosa assessed as susceptible isolates at minimum inhibitory concentration of 0.5 ug/ml by CLSI broth microdilution method; set-up: scale not given: the % may be the effect or the level left
Klebsiella oxytoca [29] = experiment: Antibacterial activity against Klebsiella oxytoca assessed as susceptible isolates at minimum inhibitory concentration of 0.25 ug/ml by CLSI broth microdilution method; set-up: scale not given: the % may be the effect or the level left

COLISTIN
Activity (Pseudomonas aeruginosa [1]): 99.1%
Activity (Enterobacter cloacae): 0%
Activity (Pseudomonas aeruginosa [2]): 100%
Activity (Acinetobacter baumannii [3]): 6.5%
Activity (Pseudomonas aeruginosa [4]): 98.2%
Activity (Klebsiella aerogenes): 97.3%
Activity (Pseudomonas aeruginosa [5]): 100%
Activity (Pseudomonas aeruginosa [6]): 100%
Activity (Pseudomonas aeruginosa [7]): 1.8%
Activity (Klebsiella pneumoniae): 77.9%
Activity (Acinetobacter baumannii [8]): 93.5%
Activity (Pseudomonas aeruginosa [9]): 1.1%
Activity (Escherichia coli): 82.4%
Activity (Pseudomonas aeruginosa [10]): 99%
Activity (Proteus mirabilis [11]): 0%
Activity (Pseudomonas aeruginosa [12]): 97.4%
Activity (Proteus mirabilis [13]): 0%
Activity (Serratia marcescens [14]): 0%
Activity (Pseudomonas aeruginosa [15]): 100%
Activity (Pseudomonas aeruginosa [16]): 29.1%
Activity (Pseudomonas aeruginosa [17]): 92.9%
Activity (Serratia marcescens [18]): 1.9%
Activity (Pseudomonas aeruginosa [19]): 91.6%
Activity (Pseudomonas aeruginosa [20]): 4.1%
Activity (Pseudomonas aeruginosa [21]): 92.2%
Activity (Klebsiella oxytoca [22]): 98.1%
Activity (Proteus mirabilis [23]): 0%
Activity (Proteus mirabilis [24]): 0.8%
Activity (Proteus mirabilis [25]): 0%
Activity (Pseudomonas aeruginosa [26]): 99.1%
Activity (Klebsiella oxytoca [27]): 100%
Activity (Pseudomonas aeruginosa [28]): 3.5%
Activity (Klebsiella oxytoca [29]): 18.5%
